# In patent US9549556B2, “Macrocyclic picolinamides as fungicides” (DOW AGROSCIENCES LLC, priority 2013, dated 2017):
# Where two headings read alike, the source gives them in different places.
# Legend:
# [1] = tested on: Puccinia triticina; test: Wheat brown rust (PUCCRT) disease control on wheat seedlings; assay type: in vivo; conditions: read-out: PUCCRT disease control rating (% Control); for pest or weed control at 100 ppm: high volume application; for pest or weed control at 121.5 g/ha: 121.5 g/H, low volume (track spray) application
# [2] = tested on: Septoria tritici; test: Leaf blotch of wheat (SEPTTR) disease control on wheat seedlings; assay type: in vivo, Mycosphaerella graminicola (anamorph Septoria tritici); conditions: Zymoseptoria tritici, read-out: SEPTTR disease control rating (% Control); for pest or weed control at 100 ppm: high volume application; for pest or weed control at 121.5 g/ha: 121.5 g/H, low volume (track spray) application
# Method: Evaluation of Fungicidal Activity: Leaf Blotch of Wheat (Mycosphaerella graminicola; Anamorph: Septoria tritici; Bayer Code […]) Technical grades of materials were dissolved in acetone, which were then mixed with nine volumes of water containing 110 ppm Triton X-100. The fungicide solutions were applied onto wheat seedlings using an automated booth sprayer to run-off. All sprayed plants were allowed to air dry prior to further handling. All fungicides were evaluated using the aforementioned method for their activity vs. all target diseases. Wheat leaf blotch and brown rust activity were also evaluated using track spray applications, in which case the fungicides were formulated as EC formulations, containing 0.1% Trycol 5941 in the spray solutions. Wheat plants (variety Yuma) were grown from seed in a greenhouse in 50% mineral soil/50% soil-less Metro mix until the first leaf was fully emerged, with 7-10 seedlings per pot. These plants were inoculated with an aqueous spore suspension of Septoria tritici either prior to or after fungicide treatments. After inoculation the plants were kept in 100% relative humidity (one day in a dark dew chamber followed by two to three days in a lighted dew chamber at 20° C.) to permit spores to germinate and infect the leaf. The plants were then transferred to a greenhouse set at 20° C. for disease to develop. When disease symptoms were fully expressed on the 1st leaves of untreated plants, infection levels were assessed on a scale of 0 to 100 percent disease severity. Percent disease control was calculated using the ratio of disease severity on treated plants relative to untreated plants.
Compound,"pest or weed control at 100 ppm ([1]; 24 h, 1DP (1 Day Protectant)) [%]","pest or weed control at 100 ppm ([1]; 72 h, 3DC (3 Day Curative)) [%]","pest or weed control at 100 ppm ([2]; 24 h, 1DP (1 Day Protectant)) [%]","pest or weed control at 100 ppm ([2]; 72 h, 3DC (3 Day Curative)) [%]","pest or weed control at 121.5 g/ha ([1]; 24 h, 1DP (1 Day Protectant)) [%]","pest or weed control at 121.5 g/ha ([1]; 72 h, 3DC (3 Day Curative)) [%]","pest or weed control at 121.5 g/ha ([2]; 24 h, 1DP (1 Day Protectant)) [%]","pest or weed control at 121.5 g/ha ([2]; 72 h, 3DC (3 Day Curative)) [%]"
CCCC[C@H]1[C@H](C)OC(=O)[C@@H](NC(=O)c2nccc(OC)c2O)COC[C@@H]1OCC1CC1 [Compound 3],> 70,> 70,> 70,< 70,–,–,–,–
CCCO[C@H]1COC[C@H](NC(=O)c2nccc(OC)c2OCOC(=O)COCC)C(=O)O[C@@H](C)[C@@H]1Cc1ccc(F)cc1 [Compound 8],–,–,–,–,> 70,> 70,> 70,> 70
COc1ccnc(C(=O)N[C@H]2COC[C@H](Oc3ccc(C)cc3)[C@@H](Cc3ccc(F)cc3)[C@H](C)OC2=O)c1OC(C)=O [Compound 10],–,–,–,–,> 70,< 70,> 70,> 70
COc1ccnc(C(=O)N[C@H]2COC[C@H](OCc3ccccc3)[C@@H](CCC(C)C)[C@H](C)OC2=O)c1OCOC(C)=O [Compound 14],–,–,–,–,> 70,> 70,> 70,> 70
CCCO[C@H]1COC[C@H](NC(=O)c2nccc(OC)c2O)C(=O)O[C@@H](C)[C@@H]1Cc1ccc(F)cc1 [Compound 17],> 70,> 70,> 70,> 70,–,–,–,–
"CCCO[C@H]1COC[C@H](NC(=O)c2nccc(OC)c2OCOC(C)=O)C(=O)O[C@@H](C)[C@@H]1CCC(C)C [Compound 18, ((2-(((3S,7R,8S,9S)-8-isopentyl-9-methyl-2-oxo-7-propoxy-1,5-dioxonan-3-yl)carbamoyl)-4-methoxypyridin-3-yl)oxy)methyl acetate]",–,–,–,–,> 70,> 70,< 70,> 70
CCCO[C@H]1COC[C@H](NC(=O)c2nccc(OC)c2OC(C)=O)C(=O)O[C@@H](C)[C@@H]1Cc1ccc(F)cc1 [Compound 20],–,–,–,–,> 70,> 70,> 70,> 70
COc1ccnc(C(=O)N[C@H]2COC[C@H](Oc3ccc(C)cc3)[C@@H](Cc3ccc(F)cc3)[C@H](C)OC2=O)c1O [Compound 23],> 70,< 70,> 70,< 70,–,–,–,–
COc1ccnc(C(=O)N[C@H]2COC[C@H](OCC3CC3)[C@@H](Cc3ccc(F)cc3)[C@H](C)OC2=O)c1O [Compound 24],> 70,> 70,> 70,> 70,–,–,–,–
COc1ccnc(C(=O)N[C@H]2COC[C@H](OC(=O)C3CC3)[C@@H](Cc3ccc(F)cc3)[C@H](C)OC2=O)c1O [Compound 25],> 70,> 70,> 70,> 70,–,–,–,–
CCOCC(=O)OCOc1c(OC)ccnc1C(=O)N[C@H]1COC[C@H](OCOCc2ccccc2)[C@@H](Cc2ccccc2)[C@H](C)OC1=O [Compound 26],> 70,> 70,> 70,> 70,–,–,–,–
COc1ccnc(C(=O)N[C@H]2COC[C@H](OCC3CC3)[C@@H](Cc3ccc(F)cc3)[C@H](C)OC2=O)c1OC(C)=O [Compound 28],–,–,–,–,> 70,> 70,> 70,> 70
COc1ccnc(C(=O)N[C@H]2COC[C@H](OCc3ccccc3)[C@@H](Cc3ccc(F)cc3)[C@H](C)OC2=O)c1OCOC(C)=O [Compound 30],–,–,–,–,> 70,> 70,> 70,> 70
COc1ccnc(C(=O)N[C@H]2COC[C@H](OC(=O)C3CC3)[C@@H](CCC(C)C)[C@H](C)OC2=O)c1O [Compound 36],< 70,< 70,< 70,> 70,–,–,–,–
CCCC[C@H]1[C@H](C)OC(=O)[C@@H](NC(=O)c2nccc(OC)c2O)COC[C@@H]1OCc1ccccc1 [Compound 37],> 70,> 70,> 70,> 70,–,–,–,–
COc1ccnc(C(=O)N[C@H]2COC[C@H](OCc3ccccc3)[C@@H](Cc3ccc(F)cc3)[C@H](C)OC2=O)c1O [Compound 38],> 70,> 70,> 70,> 70,–,–,–,–
CCCC[C@H]1[C@H](C)OC(=O)[C@@H](NC(=O)c2nccc(OC)c2OCOC(C)=O)COC[C@@H]1OCc1ccccc1 [Compound 40],–,–,–,–,> 70,> 70,> 70,> 70
CCCC[C@H]1[C@H](C)OC(=O)[C@@H](NC(=O)c2nccc(OC)c2OCOC(C)=O)COC[C@@H]1OC(=O)C(C)C [Compound 43],–,–,–,–,> 70,> 70,< 70,> 70
CCCC[C@H]1[C@H](C)OC(=O)[C@@H](NC(=O)c2nccc(OC)c2OCOC(C)=O)COC[C@@H]1Oc1ccccc1 [Compound 44],–,–,–,–,> 70,> 70,> 70,> 70
CCCC[C@H]1[C@H](C)OC(=O)[C@@H](NC(=O)c2nccc(OC)c2O)COC[C@@H]1Oc1ccccc1 [Compound 45],> 70,< 70,> 70,< 70,–,–,–,–
COc1ccnc(C(=O)N[C@H]2COC[C@H](Oc3ccccc3)[C@@H](CCC(C)C)[C@H](C)OC2=O)c1OC(C)=O [Compound 47],–,–,–,–,> 70,< 70,> 70,> 70
CCCC[C@H]1[C@H](C)OC(=O)[C@@H](NC(=O)c2nccc(OC)c2OCOC(C)=O)COC[C@@H]1OCCCC(F)(F)F [Compound 48],–,–,–,–,> 70,> 70,> 70,> 70
CCCC[C@H]1[C@H](C)OC(=O)[C@@H](NC(=O)c2nccc(OC)c2O)COC[C@@H]1OC(=O)C(C)C [Compound 58],> 70,< 70,< 70,> 70,–,–,–,–
COc1ccnc(C(=O)N[C@H]2COC[C@H](OC(=O)C3CC3)[C@@H](Cc3ccc(F)cc3)[C@H](C)OC2=O)c1OCOC(C)=O [Compound 59],–,–,–,–,> 70,> 70,> 70,> 70
CCCO[C@H]1COC[C@H](NC(=O)c2nccc(OC)c2OCOC(C)=O)C(=O)O[C@@H](C)[C@@H]1Cc1ccc(F)cc1 [Compound 62],–,–,–,–,> 70,> 70,> 70,> 70
COc1ccnc(C(=O)N[C@H]2COC[C@H](Oc3ccc(C)cc3)[C@@H](Cc3ccc(F)cc3)[C@H](C)OC2=O)c1OCOC(C)=O [Compound 64],–,–,–,–,> 70,< 70,> 70,> 70
CCCC[C@H]1[C@H](C)OC(=O)[C@@H](NC(=O)c2nccc(OC)c2O)COC[C@@H]1OCCCC(F)(F)F [Compound 65],> 70,< 70,> 70,> 70,–,–,–,–
"COc1ccnc(C(=O)N[C@H]2COC[C@H](OC(=O)C3CC3)[C@@H](CCC(C)C)[C@H](C)OC2=O)c1OC(C)=O [Compound 68, (3S,7R,8S,9S)-3-(3-acetoxy-4-methoxypicolinamido)-8-isopentyl-9-methyl-2-oxo-1,5-dioxonan-7-yl cyclopropanecarboxylate]",–,–,–,–,> 70,> 70,< 70,> 70
